Experimental data: US20020137929A1, “1 - (3-heterocyclylphenyl) isothiourea, -isourea, -guanidine and -amidine herbicidal agents” (Intellectual Property Department, BASF Aktiengesellschaft, priority 1998, published 2002)

Assays:
AMBEL (Ragweed, Common) = experiment: Postemergence herbicidal evaluation; type: in vivo, Ambrosia artemisifolia; conditions: postemergence
Procedure, shortened: (§1)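 Visual 0–9 rating versus control (stand, vigor, malformation, size, chlorosis, overall appearance), taken four to five weeks post-spray. Two-week-old seedlings received roughly 0.0156–0.500 kg/ha active in acetone/water (50/50) with 0.5% TWEEN 20 via nozzle at 40 psi.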

CASOB (Sicklepod) [1] = experiment: Postemergence herbicidal evaluation; type: in vivo, Cassia obtusifolia; conditions: postemergence
Procedure, shortened: as §1

[2] = system: CHEAL (Lambsquarters, Common); experiment: Postemergence herbicidal evaluation; type: in vivo, Chenopodium album; conditions: postemergence
Procedure, shortened: as §1

GALAP (Galium) [3] = experiment: Postemergence herbicidal evaluation; type: in vivo, Galium aparine; conditions: postemergence
Procedure, shortened: as §1

ECHCG (Barnyardgrass) = experiment: Postemergence herbicidal evaluation; type: in vivo, Echinochloa crus-galli; conditions: postemergence
Procedure, shortened: as §1

SETVI (Foxtail, Green) = experiment: Postemergence herbicidal evaluation; type: in vivo, Setaria viridis; conditions: postemergence
Procedure, shortened: as §1

[4] = system: GLXMAW (Soybean, Williams); experiment: Postemergence herbicidal evaluation; type: in vivo, Glycine max, (L.) Merr. cv Williams; conditions: postemergence
Procedure, shortened: as §1

ORYSAT (Rice, Tebonnet) = experiment: Postemergence herbicidal evaluation; type: in vivo, Oryza sativa, (L.) Tebonnet; conditions: postemergence
Procedure, shortened: as §1

CASOB (Sicklepod) [5] = experiment: Preemergence herbicidal evaluation; type: in vivo, Cassia obtusifolia; conditions: rated 4-5 weeks after treatment
Procedure, shortened: (§2)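 Steps: mix seeds into potting soil; plant atop ~1 inch soil; spray compound in aqueous acetone (~0.0156-0.500 kg/ha equivalent); maintain in greenhouse with watering; rate visually 0-9 versus control at 4-5 weeks.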

GALAP (Galium) [6] = experiment: Preemergence herbicidal evaluation; type: in vivo, Galium aparine; conditions: rated 4-5 weeks after treatment
Procedure, shortened: as §2

ZEAMX (Corn, Field) = experiment: Preemergence herbicidal evaluation; type: in vivo, Zea mays; conditions: rated 4-5 weeks after treatment
Procedure, shortened: as §2

CYPIR (Rice Flatsedge) = experiment: Preemergence weed control under flooded paddy conditions; type: in vivo, Cyperus iria; conditions: rated 3-4 weeks after treatment
Procedure, shortened: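 Ratings on a 0-9 visual scale cover stand, vigor, malformation, size, chlorosis and overall appearance relative to a control, taken three to four weeks post-treatment. Application was into flood water over freshly sown silt loam at roughly 0.0313 to 0.500 kg/ha.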

CYPSE (Flatsedge) = experiment: as above; type: in vivo, Cyperus serotinus; conditions: rated 3-4 weeks after treatment
Procedure, shortened: (§3)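 Visual injury scored 0-9 against control three to four weeks post-treatment, greenhouse-grown. Application: acetone/water (50/50) solutions dosed directly into flood water (1.5-3 cm over silt loam, planted top 0.5 cm), roughly 0.0313 to 0.500 kg/ha active ingredient.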

[7] = system: SAGPY (Arrowhead (Pygmaea)); experiment: as above; type: in vivo, Sagittaria pygmaea; conditions: rated 3-4 weeks after treatment
Procedure, shortened: as §3

Cn1c(C(F)(F)F)cc(=O)n(-c2cc(N=C3SCC(=O)N3CC(=O)OCC3CCCCC3)c(Cl)cc2F)c1=O [Compound 123, Cyclohexylmethyl 2-{{2-chloro-5-[3,6-dihydro-3-methyl-2,6-dioxo-4-(trifluoromethyl)-1(2H)-pyrimidinyl]-4-fluorophenyl}imino}-4-oxo-3-thiazolidineacetate]
Herbicidal rating AMBEL (AMBEL (Ragweed, Common); rate 0.0156 kg/ha): 9.0 | Herbicidal rating AMBEL (AMBEL (Ragweed, Common); rate 0.0313 kg/ha): 9.0 | Herbicidal rating AMBEL (AMBEL (Ragweed, Common); rate 0.0625 kg/ha): 9.0 | Herbicidal rating AMBEL (AMBEL (Ragweed, Common); rate 0.1250 kg/ha): 9.0 | Herbicidal rating CASOB (CASOB (Sicklepod) [1]; rate 0.0156 kg/ha): 3.0 | Herbicidal rating CASOB (CASOB (Sicklepod) [1]; rate 0.0313 kg/ha): 3.0 | Herbicidal rating CASOB (CASOB (Sicklepod) [1]; rate 0.0625 kg/ha): 9.0 | Herbicidal rating CASOB (CASOB (Sicklepod) [1]; rate 0.1250 kg/ha): 8.0 | Herbicidal rating CHEAL ([2]; rate 0.0156 kg/ha): 9.0 | Herbicidal rating CHEAL ([2]; rate 0.0313 kg/ha): 9.0 | Herbicidal rating CHEAL ([2]; rate 0.0625 kg/ha): 9.0 | Herbicidal rating CHEAL ([2]; rate 0.1250 kg/ha): 9.0 | Herbicidal rating GALAP (GALAP (Galium) [3]; rate 0.0156 kg/ha): 2.0 | Herbicidal rating GALAP (GALAP (Galium) [3]; rate 0.0313 kg/ha): 4.0 | Herbicidal rating GALAP (GALAP (Galium) [3]; rate 0.0625 kg/ha): 6.0 | Herbicidal rating GALAP (GALAP (Galium) [3]; rate 0.1250 kg/ha): 7.0 | Herbicidal rating ECHCG (ECHCG (Barnyardgrass); rate 0.0156 kg/ha): 5.0 | Herbicidal rating ECHCG (ECHCG (Barnyardgrass); rate 0.0313 kg/ha): 5.0 | Herbicidal rating ECHCG (ECHCG (Barnyardgrass); rate 0.0625 kg/ha): 7.0 | Herbicidal rating ECHCG (ECHCG (Barnyardgrass); rate 0.1250 kg/ha): 9.0 | Herbicidal rating SETVI (SETVI (Foxtail, Green); rate 0.0156 kg/ha): 9.0 | Herbicidal rating SETVI (SETVI (Foxtail, Green); rate 0.0313 kg/ha): 9.0 | Herbicidal rating SETVI (SETVI (Foxtail, Green); rate 0.0625 kg/ha): 9.0 | Herbicidal rating SETVI (SETVI (Foxtail, Green); rate 0.1250 kg/ha): 9.0 | Herbicidal rating GLXMAW ([4]; rate 0.0156 kg/ha): 6.5 | Herbicidal rating GLXMAW ([4]; rate 0.0313 kg/ha): 6.5 | Herbicidal rating GLXMAW ([4]; rate 0.0625 kg/ha): 8.0 | Herbicidal rating GLXMAW ([4]; rate 0.1250 kg/ha): 9.0 | Herbicidal rating ORYSAT (ORYSAT (Rice, Tebonnet); rate 0.0156 kg/ha): 4.0 | Herbicidal rating ORYSAT (ORYSAT (Rice, Tebonnet); rate 0.0313 kg/ha): 4.0 | Herbicidal rating ORYSAT (ORYSAT (Rice, Tebonnet); rate 0.0625 kg/ha): 5.5 | Herbicidal rating ORYSAT (ORYSAT (Rice, Tebonnet); rate 0.1250 kg/ha): 5.5 | Preemergence herbicidal rating CASOB (CASOB (Sicklepod) [5]; rate 0.0156 kg/ha): 0.0 | Preemergence herbicidal rating CASOB (CASOB (Sicklepod) [5]; rate 0.0313 kg/ha): 0.0 | Preemergence herbicidal rating CASOB (CASOB (Sicklepod) [5]; rate 0.0625 kg/ha): 0.0 | Preemergence herbicidal rating CASOB (CASOB (Sicklepod) [5]; rate 0.1250 kg/ha): 0.0 | Preemergence herbicidal rating CASOB (CASOB (Sicklepod) [5]; rate 0.5000 kg/ha): 3.0 | Preemergence herbicidal rating GALAP (GALAP (Galium) [6]; rate 0.0156 kg/ha): 2.0 | Preemergence herbicidal rating GALAP (GALAP (Galium) [6]; rate 0.0313 kg/ha): 3.0 | Preemergence herbicidal rating GALAP (GALAP (Galium) [6]; rate 0.0625 kg/ha): 3.0 | Preemergence herbicidal rating GALAP (GALAP (Galium) [6]; rate 0.1250 kg/ha): 7.0 | Preemergence herbicidal rating GALAP (GALAP (Galium) [6]; rate 0.2500 kg/ha): 6.0 | Preemergence herbicidal rating GALAP (GALAP (Galium) [6]; rate 0.5000 kg/ha): 9.0 | Preemergence herbicidal rating ZEAMX (ZEAMX (Corn, Field); rate 0.0156 kg/ha): 0.0 | Preemergence herbicidal rating ZEAMX (ZEAMX (Corn, Field); rate 0.0313 kg/ha): 1.0 | Preemergence herbicidal rating ZEAMX (ZEAMX (Corn, Field); rate 0.0625 kg/ha): 1.0 | Preemergence herbicidal rating ZEAMX (ZEAMX (Corn, Field); rate 0.1250 kg/ha): 5.0 | Preemergence herbicidal rating ZEAMX (ZEAMX (Corn, Field); rate 0.2500 kg/ha): 7.0 | Preemergence herbicidal rating ZEAMX (ZEAMX (Corn, Field); rate 0.5000 kg/ha): 7.0 | herbicidal effect rating, CYPIR (CYPIR (Rice Flatsedge); 0.0313 kg/ha): 6.0 | herbicidal effect rating, CYPIR (CYPIR (Rice Flatsedge); 0.0625 kg/ha): 5.0 | herbicidal effect rating, CYPIR (CYPIR (Rice Flatsedge); 0.1250 kg/ha): 9.0 | herbicidal effect rating, CYPIR (CYPIR (Rice Flatsedge); 0.2500 kg/ha): 9.0 | herbicidal effect rating, CYPSE (CYPSE (Flatsedge); 0.0313 kg/ha): 5.0 | herbicidal effect rating, CYPSE (CYPSE (Flatsedge); 0.0625 kg/ha): 9.0 | herbicidal effect rating, CYPSE (CYPSE (Flatsedge); 0.1250 kg/ha): 9.0 | herbicidal effect rating, CYPSE (CYPSE (Flatsedge); 0.2500 kg/ha): 9.0 | herbicidal effect rating, SAGPY ([7]; 0.0313 kg/ha): 5.0 | herbicidal effect rating, SAGPY ([7]; 0.0625 kg/ha): 6.0 | herbicidal effect rating, SAGPY ([7]; 0.1250 kg/ha): 6.0 | herbicidal effect rating, SAGPY ([7]; 0.2500 kg/ha): 8.0

CCOC(=O)CN1C(=O)C(C(=O)OC)SC1=Nc1cc(-n2c(=O)cc(C(F)(F)F)n(C)c2=O)c(F)cc1Cl (stereo not shown) [Compound 128, 5-Carboxy-2-{{2-chloro-5-[3,6-dihydro-3-methyl-2,6-dioxo-4-(trifluoromethyl)-1(2H)-pyrimidinyl]-4-fluorophenyl}imino}-4-oxo-3-thiazolidineacetic acid, 3-ethyl methyl ester]
Herbicidal rating AMBEL (AMBEL (Ragweed, Common); rate 0.0156 kg/ha): 7.0 | Herbicidal rating AMBEL (AMBEL (Ragweed, Common); rate 0.0313 kg/ha): 9.0 | Herbicidal rating AMBEL (AMBEL (Ragweed, Common); rate 0.0625 kg/ha): 9.0 | Herbicidal rating CASOB (CASOB (Sicklepod) [1]; rate 0.0156 kg/ha): 1.0 | Herbicidal rating CASOB (CASOB (Sicklepod) [1]; rate 0.0313 kg/ha): 1.0 | Herbicidal rating CASOB (CASOB (Sicklepod) [1]; rate 0.0625 kg/ha): 7.0 | Herbicidal rating CHEAL ([2]; rate 0.0156 kg/ha): 4.0 | Herbicidal rating CHEAL ([2]; rate 0.0313 kg/ha): 9.0 | Herbicidal rating CHEAL ([2]; rate 0.0625 kg/ha): 9.0 | Herbicidal rating GALAP (GALAP (Galium) [3]; rate 0.0156 kg/ha): 1.0 | Herbicidal rating GALAP (GALAP (Galium) [3]; rate 0.0313 kg/ha): 1.0 | Herbicidal rating GALAP (GALAP (Galium) [3]; rate 0.0625 kg/ha): 3.0 | Herbicidal rating ECHCG (ECHCG (Barnyardgrass); rate 0.0156 kg/ha): 1.0 | Herbicidal rating ECHCG (ECHCG (Barnyardgrass); rate 0.0313 kg/ha): 2.0 | Herbicidal rating ECHCG (ECHCG (Barnyardgrass); rate 0.0625 kg/ha): 1.0 | Herbicidal rating SETVI (SETVI (Foxtail, Green); rate 0.0156 kg/ha): 1.0 | Herbicidal rating SETVI (SETVI (Foxtail, Green); rate 0.0313 kg/ha): 1.0 | Herbicidal rating SETVI (SETVI (Foxtail, Green); rate 0.0625 kg/ha): 4.0 | Herbicidal rating GLXMAW ([4]; rate 0.0156 kg/ha): 4.5 | Herbicidal rating GLXMAW ([4]; rate 0.0313 kg/ha): 4.5 | Herbicidal rating GLXMAW ([4]; rate 0.0625 kg/ha): 6.0 | Herbicidal rating ORYSAT (ORYSAT (Rice, Tebonnet); rate 0.0156 kg/ha): 1.5 | Herbicidal rating ORYSAT (ORYSAT (Rice, Tebonnet); rate 0.0313 kg/ha): 2.0 | Herbicidal rating ORYSAT (ORYSAT (Rice, Tebonnet); rate 0.0625 kg/ha): 2.5 | Preemergence herbicidal rating CASOB (CASOB (Sicklepod) [5]; rate 0.0156 kg/ha): 0.0 | Preemergence herbicidal rating CASOB (CASOB (Sicklepod) [5]; rate 0.0313 kg/ha): 1.0 | Preemergence herbicidal rating CASOB (CASOB (Sicklepod) [5]; rate 0.0625 kg/ha): 1.0 | Preemergence herbicidal rating CASOB (CASOB (Sicklepod) [5]; rate 0.2500 kg/ha): 0.0 | Preemergence herbicidal rating GALAP (GALAP (Galium) [6]; rate 0.0156 kg/ha): 0.0 | Preemergence herbicidal rating GALAP (GALAP (Galium) [6]; rate 0.0313 kg/ha): 0.0 | Preemergence herbicidal rating GALAP (GALAP (Galium) [6]; rate 0.0625 kg/ha): 0.0 | Preemergence herbicidal rating GALAP (GALAP (Galium) [6]; rate 0.1250 kg/ha): 1.0 | Preemergence herbicidal rating GALAP (GALAP (Galium) [6]; rate 0.2500 kg/ha): 1.0 | Preemergence herbicidal rating ZEAMX (ZEAMX (Corn, Field); rate 0.0156 kg/ha): 0.0 | Preemergence herbicidal rating ZEAMX (ZEAMX (Corn, Field); rate 0.0313 kg/ha): 0.0 | Preemergence herbicidal rating ZEAMX (ZEAMX (Corn, Field); rate 0.0625 kg/ha): 0.0 | Preemergence herbicidal rating ZEAMX (ZEAMX (Corn, Field); rate 0.1250 kg/ha): 0.0 | Preemergence herbicidal rating ZEAMX (ZEAMX (Corn, Field); rate 0.2500 kg/ha): 0.0 | herbicidal effect rating, CYPIR (CYPIR (Rice Flatsedge); 0.0313 kg/ha): 0.0 | herbicidal effect rating, CYPIR (CYPIR (Rice Flatsedge); 0.0625 kg/ha): 4.0 | herbicidal effect rating, CYPIR (CYPIR (Rice Flatsedge); 0.1250 kg/ha): 4.0 | herbicidal effect rating, CYPIR (CYPIR (Rice Flatsedge); 0.2500 kg/ha): 4.0 | herbicidal effect rating, CYPSE (CYPSE (Flatsedge); 0.0625 kg/ha): 0.0 | herbicidal effect rating, CYPSE (CYPSE (Flatsedge); 0.2500 kg/ha): 3.0 | herbicidal effect rating, SAGPY ([7]; 0.0313 kg/ha): 0.0 | herbicidal effect rating, SAGPY ([7]; 0.0625 kg/ha): 3.0 | herbicidal effect rating, SAGPY ([7]; 0.1250 kg/ha): 4.0 | herbicidal effect rating, SAGPY ([7]; 0.2500 kg/ha): 6.0
